TGI and GI50 data for 18 compounds are collected here from PubChem BioAssay (NCI).

Several values for one entry are separate records, joined by “and”; a condition that tells them apart may be missing. Equal values may be shown once.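 Compound exposure: 48 hours, 5 concentrations, 96-well plates. Here, GI50 denotes the concentration required for 50% inhibition of growth. TGI: concentration producing complete growth inhibition.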

Among the test systems are DU-145 prostate; LXFL 529 NSCLC; RXF-631 renal; NCI/ADR-RES ovarian; T-47D breast; MDA-MB-231 breast; MDA-MB-435; MDA-N.
Holding throughout (assay): growth of human tumour cells (NCI), 48 h

As to `O=C/C(=C(/Cl)c1ccc(O)cc1)c1ccccc1`, the TGI with DU-145 prostate is over 100 µM; in the experiment with LXFL 529 NSCLC, 59.9 µM; in the experiment with RXF-631 renal, over 31.6 µM.
The compound `COC1OC(C)C(OCc2ccccc2)C(OS(=O)(=O)c2ccc(C)cc2)C1OS(=O)(=O)c1ccc(C)cc1` (configuration not stated) registered a TGI in the experiment on LXFL 529 NSCLC of over 100 µM.
On the same count and under the same terms, for `CC(=O)N(C(C)=O)C1=C2c3ccccc3N(S(=O)(=O)c3ccccc3)C2n2c(=O)n(-c3ccccc3)c(=O)n2C1` (configuration not stated) the value was over 100 µM.
The compound `COC(=O)/C(C#N)=C1\CCC(C(=O)OC)N1C` (configuration not stated) came in with a TGI in the experiment with RXF-631 renal of over 100 µM.
As for `CCCCCCCCCCCCCC(=O)OCC1OC(=O)CC1O` (configuration not stated), the TGI with LXFL 529 NSCLC and with RXF-631 renal was over 100 µM each time.
Consider `O=C(c1ccc2ccccc2c1)c1c(C(F)(F)F)n([O-])c2ccc(Cl)cc2[n+]1=O`, for which the GI50 in the experiment on DU-145 prostate is 1.47 µM; in the experiment on NCI/ADR-RES ovarian, 1.89 µM; in the experiment with T-47D breast, 0.453 µM; in the experiment with MDA-MB-231 breast it was 1.59 µM; with MDA-MB-435, 1.66 µM. The TGI turned out to be 2.79 µM in the experiment with DU-145 prostate; 3.86 µM with NCI/ADR-RES ovarian; 1.78 µM in the experiment on T-47D breast; 3.21 µM in the experiment on MDA-MB-231 breast; 3.17 µM with MDA-MB-435.
For `Cc1nc(Nc2n[nH]c3c2CN(C(=O)N[C@H](CN(C)C)c2ccccc2)C3(C)C)c2sccc2n1`, the GI50 in the experiment on DU-145 prostate is 0.156 µM and 0.317 µM; with NCI/ADR-RES ovarian it was > 3.65 µM and 17.5 µM; with T-47D breast, 0.0942 µM and 0.562 µM; in the experiment with MDA-MB-231 breast it was 0.0856 µM and 0.0341 µM; in the experiment on MDA-MB-435 it was 0.0272 µM and 0.0275 µM. The TGI in the experiment with DU-145 prostate was > 10 µM and 15.9 µM; with NCI/ADR-RES ovarian, over 100 µM; in the experiment with T-47D breast it was 5.47 µM and 8.67 µM; in the experiment on MDA-MB-231 breast, 1.98 µM and 1.95 µM; with MDA-MB-435 it was > 3.52 µM and 3.35 µM.
On to `CC(=O)[CH-]C(C)=O.[CH2-]C.[CH2-]C.[Tl+3]`, for which, in the experiment with LXFL 529 NSCLC, the GI50 is over 100 µM and the TGI was over 100 µM.
As to `Cc1ccccc1Nc1nc2c(s1)C(=O)c1ccccc1C2=O`, the TGI in the experiment with DU-145 prostate was 20 µM; with LXFL 529 NSCLC, 14.8 µM; with T-47D breast, 27.5 µM; in the experiment on MDA-MB-231 breast it was 15 µM; in the experiment on MDA-N, 3.37 µM.
In the case of `CC1(C)N=C(N)N=C(N)N1c1ccc(OCC(=O)Nc2ccccc2)c(Cl)c1`, the GI50 is 1.15 µM with DU-145 prostate; over 100 µM in the experiment on NCI/ADR-RES ovarian; over 65.8 µM in the experiment with T-47D breast; over 100 µM in the experiment with MDA-MB-231 breast; 0.522 µM with MDA-MB-435. Further, the TGI with DU-145 prostate, with NCI/ADR-RES ovarian, in the experiment with T-47D breast, with MDA-MB-231 breast and in the experiment with MDA-MB-435 was over 100 µM in each case.
As to `CC1=C(C(=O)Nc2ccccc2C)C(/C=C/c2ccccc2)C(C(=O)Nc2ccccc2C)=C(C)N1`, the TGI in the experiment on LXFL 529 NSCLC and in the experiment with RXF-631 renal was over 100 µM each time.
In the case of `C=CCO/N=C/c1cc(NC(=S)c2ccoc2C)ccc1Cl`, the TGI in the experiment on DU-145 prostate amounted to 27.8 µM; in the experiment on NCI/ADR-RES ovarian, 29 µM; in the experiment with T-47D breast, 23.7 µM; with MDA-MB-231 breast, 30.1 µM; with MDA-MB-435, 54.4 µM; in the experiment on MDA-N, 32.2 µM.
As for `O=c1c2c3c(sc2n2c(-c4cc(-c5ccccc5)nn4-c4ccccc4)nnc2n1Cc1ccccc1)CCCC3`, the GI50 with DU-145 prostate, in the experiment on NCI/ADR-RES ovarian, in the experiment on T-47D breast, in the experiment with MDA-MB-231 breast and in the experiment on MDA-MB-435 was over 100 µM throughout. Also, the TGI with DU-145 prostate, with NCI/ADR-RES ovarian, in the experiment on T-47D breast, in the experiment on MDA-MB-231 breast and in the experiment on MDA-MB-435 was over 100 µM in each case.
Turning to `CCOC(=O)c1ccc(N[C@@H]2c3cc4c(cc3C(C3=CC(=O)C(=O)C(OC)=C3)[C@H]3C(=O)OCC32)OCO4)cc1` (some centres not stated), the TGI with LXFL 529 NSCLC came to 29.4 µM; in the experiment with RXF-631 renal, 10 µM.
Turning to `Cn1c(/C(C#N)=C/c2ccc3ccccc3c2)cc2ccccc21`, the GI50 in the experiment on DU-145 prostate was 0.456 µM; in the experiment on NCI/ADR-RES ovarian it was 0.0648 µM; in the experiment on MDA-MB-231 breast, 0.46 µM; with MDA-MB-435, 0.0317 µM. Also, the TGI in the experiment on DU-145 prostate is over 100 µM; in the experiment with NCI/ADR-RES ovarian, over 100 µM; in the experiment on T-47D breast, over 100 µM; with MDA-MB-231 breast, over 100 µM; with MDA-MB-435 it was 0.109 µM.
On to `CC(CC(=O)Nc1ccc(NC(=O)CC(C)N=NC(N)=S)cc1)N=NC(N)=S` (configuration not stated), for which the TGI in the experiment with LXFL 529 NSCLC and in the experiment with RXF-631 renal was over 100 µM in each case.
`O=C(NC12CC3CC(CC(C3)C1)C2)C(=O)c1c[nH]c2ccc(Cl)cc12`: the TGI with LXFL 529 NSCLC was over 100 µM.
`COc1ccccc1/C=C/C(=O)/C=C/c1ccccc1O`: the GI50 in the experiment with DU-145 prostate is 1.02 µM; with NCI/ADR-RES ovarian it was 2.86 µM; in the experiment on T-47D breast, 0.488 µM; in the experiment with MDA-MB-231 breast, 1.67 µM; in the experiment with MDA-MB-435, 1.51 µM. In addition, the TGI was 2.63 µM with DU-145 prostate; 15 µM in the experiment with NCI/ADR-RES ovarian; 4.52 µM with T-47D breast; 4.26 µM in the experiment on MDA-MB-231 breast; 3.81 µM in the experiment on MDA-MB-435.
